How the values were obtained:
[1] = molecular target: T1, CYP1A2 (Homo sapiens, UniProt P05177); experiment: Cytochrome P450 reaction phenotyping, recombinant CYP1A2; format: in vitro ADME
T1 construct: purchased
T1 sequence (P05177 1-516): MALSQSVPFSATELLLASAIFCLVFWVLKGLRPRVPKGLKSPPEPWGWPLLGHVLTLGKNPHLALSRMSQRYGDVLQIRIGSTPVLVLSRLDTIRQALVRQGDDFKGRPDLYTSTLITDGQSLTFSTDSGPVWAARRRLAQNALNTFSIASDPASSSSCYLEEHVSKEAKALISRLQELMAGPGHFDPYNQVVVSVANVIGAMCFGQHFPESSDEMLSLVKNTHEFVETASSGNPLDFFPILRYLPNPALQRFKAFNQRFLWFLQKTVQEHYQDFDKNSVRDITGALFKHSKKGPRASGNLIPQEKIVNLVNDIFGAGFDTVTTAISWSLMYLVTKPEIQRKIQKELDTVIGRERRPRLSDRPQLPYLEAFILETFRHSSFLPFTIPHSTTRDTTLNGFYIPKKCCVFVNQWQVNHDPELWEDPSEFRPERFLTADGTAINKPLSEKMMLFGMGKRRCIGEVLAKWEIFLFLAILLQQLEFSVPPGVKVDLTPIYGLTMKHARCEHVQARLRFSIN
Method: (§1) The amount of test compound remaining at each time point was analysed by LC-MS/MS. Incubations in control recombinant enzymes were also performed to assess non-enzymatic mediated stability.
(§2) Incubations were also performed using control Bactosomes™ (no cytochrome P450 enzymes present) to reveal any non-enzymatic degradation. Control compounds known to be metabolised specifically by each P450 isoform were included. All incubations were performed singularly for each test compound. […] The reactions were stopped by transferring an aliquot of incubate to quench solvent at the appropriate time points, in a 1:3 ratio. The termination plates were centrifuged at 3,000 rpm for 20 min at 4° C. to precipitate the protein. Following protein precipitation, the sample supernatants were analysed using LC-MS/MS, along with internal standard (1:1 supernatant to internal standard).
(§3) Following correction for any loss in the incubations with the control Bactosomes™, from a plot of In peak area ratio (compound peak area/internal standard peak area) against time, the gradient of the line was determined. Subsequently, half-life (t½) was calculated using the equations below: […]

[2] = molecular target: T2, CYP2B6 (Homo sapiens, UniProt P20813); experiment: Cytochrome P450 reaction phenotyping, recombinant CYP2B6; format: in vitro ADME
T2 construct: purchased
T2 sequence (P20813 1-491): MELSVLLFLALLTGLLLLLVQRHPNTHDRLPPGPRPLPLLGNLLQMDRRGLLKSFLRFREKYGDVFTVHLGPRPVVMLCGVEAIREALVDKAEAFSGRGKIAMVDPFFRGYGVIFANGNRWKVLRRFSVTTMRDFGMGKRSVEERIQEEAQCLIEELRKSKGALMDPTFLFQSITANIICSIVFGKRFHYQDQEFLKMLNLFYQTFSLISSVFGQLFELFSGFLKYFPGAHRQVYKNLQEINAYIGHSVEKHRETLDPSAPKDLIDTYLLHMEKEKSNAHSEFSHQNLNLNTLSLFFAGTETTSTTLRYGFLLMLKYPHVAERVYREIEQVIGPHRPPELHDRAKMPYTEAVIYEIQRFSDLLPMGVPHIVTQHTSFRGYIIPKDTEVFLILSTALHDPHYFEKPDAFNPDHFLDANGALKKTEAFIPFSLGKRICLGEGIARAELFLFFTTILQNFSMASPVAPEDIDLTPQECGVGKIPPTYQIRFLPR
Method: as §1, §2, §3

[3] = molecular target: CYP2C9 (Homo sapiens, UniProt P11712); experiment: Cytochrome P450 reaction phenotyping, recombinant CYP2C9; details: for t½: 1 µM substrate, recombinant CYP2C9, NADPH
Method: as §1, §2, §3

[4] = Metabolic stability in human liver microsomes with or without CYP1A2 inhibitor furafylline; details: human, microsomes
Method: (§4) The amount of test compound remaining at each time point was analysed by LC-MS/MS. An incubation in the absence of NADPH was also performed to assess non-CYP mediated stability.
(§5) In the pre-screen assay, […] 0.1 M phosphate buffer pH 7.4 (final substrate concentration 1 µM) were pre-incubated at 37° C. prior to the addition of NADPH (final concentration 1 mM) to initiate the reaction. A minus cofactor control incubation was included for each compound tested where 0.1 M phosphate buffer pH 7.4 was added instead of NADPH (minus NADPH). […] A minus cofactor control incubation was included for each compound tested where 0.1 M phosphate buffer pH 7.4 was added instead of cofactor (minus NADPH). […] The reactions were stopped by transferring an aliquot of incubate to acetonitrile at the appropriate time points, in a 1:3 ratio. The termination plates were centrifuged at 3,000 rpm for 20 min at 4° C. to precipitate the protein. Following protein precipitation, the sample supernatants were analysed using LC-MS/MS, along with internal standard (1:1 supernatant to internal standard).
(§6) From a plot of In peak area ratio (compound peak area/internal standard peak area) against time, the gradient of the line was determined. Subsequently, half-life and intrinsic clearance were calculated using the equations below: […]

[5] = test system: human liver microsomes; experiment: as above; details: 10 µM furafylline versus no inhibitor
Method: as §4, §5, §6

Chain of CYP2C9 (P11712 whole entry): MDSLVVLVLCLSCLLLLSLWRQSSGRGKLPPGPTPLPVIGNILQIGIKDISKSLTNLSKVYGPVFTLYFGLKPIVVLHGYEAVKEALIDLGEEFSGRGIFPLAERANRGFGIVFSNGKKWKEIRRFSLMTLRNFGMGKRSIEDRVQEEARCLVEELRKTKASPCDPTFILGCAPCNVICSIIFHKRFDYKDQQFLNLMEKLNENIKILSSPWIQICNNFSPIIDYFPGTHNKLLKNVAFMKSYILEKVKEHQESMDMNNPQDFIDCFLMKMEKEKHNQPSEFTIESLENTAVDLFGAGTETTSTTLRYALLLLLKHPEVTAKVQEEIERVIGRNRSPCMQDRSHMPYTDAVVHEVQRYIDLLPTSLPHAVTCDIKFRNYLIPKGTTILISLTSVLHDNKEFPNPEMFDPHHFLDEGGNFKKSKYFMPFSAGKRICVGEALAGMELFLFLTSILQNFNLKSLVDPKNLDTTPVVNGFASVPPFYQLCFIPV

Structure (SMILES): COC(=O)Nc1nc2cc(C(=O)c3ccc(F)cc3)ccc2[nH]1 [Flubendazole, methyl N-[6-(4-fluorobenzoyl)-1H-benzimidazol-2-yl]carbamate]
- Compound Remaining (% of 0 min) ([1]; CYP1A2, 0 min): 100%
- Compound Remaining (% of 0 min) ([1]; CYP1A2, 5 min): 38.6%
- Compound Remaining (% of 0 min) ([1]; CYP1A2, 15 min): 1.30%
- Compound Remaining (% of 0 min) ([1]; CYP1A2, 30 min): 0.0440%
- Compound Remaining (% of 0 min) ([1]; CYP1A2, 45 min): 0.002%
- half-life at 1 µM ([1]; human, pH 7.4, 1 µM substrate, recombinant CYP1A2, NADPH, 30 and 45 minute time points excluded, read-out: t½): 2.34 min
- Compound Remaining (% of 0 min) ([2]; CYP2B6, 0 min): 100%
- Compound Remaining (% of 0 min) ([2]; CYP2B6, 5 min): 96.5%
- Compound Remaining (% of 0 min) ([2]; CYP2B6, 15 min): 95.8%
- Compound Remaining (% of 0 min) ([2]; CYP2B6, 30 min): 97.8%
- Compound Remaining (% of 0 min) ([2]; CYP2B6, 45 min): 104%
- half-life at 1 µM ([2]; human, pH 7.4, 1 µM substrate, recombinant CYP2B6, NADPH, minus value = not metabolised, read-out: t½): ≥ 147 min
- t½ [3]: 95.33 h
- t½ ([3]; listed as flubendazole): ≥ 2.45 h
- Compound Remaining (% of 0 min) ([3]; CYP2C9, 0 min): 100%
- Compound Remaining (% of 0 min) ([3]; CYP2C9, 5 min): 97.4%
- Compound Remaining (% of 0 min) ([3]; CYP2C9, 15 min): 101%
- Compound Remaining (% of 0 min) ([3]; CYP2C9, 30 min): 97.9%
- Compound Remaining (% of 0 min) ([3]; CYP2C9, 45 min): 99.0%
- microsomal CLint at 1 µM ([4]; pH 7.4, CLint, 1 µM substrate, no inhibitor): 50.3 µL/min/mg
- microsomal CLint at 1 µM ([4]; pH 7.4, intrinsic clearance (CLint), pre-screen assay, absence of inhibitor): 43.7 µL/min/mg
- half-life at 1 µM ([4]; pH 7.4, t½, 1 µM substrate, no inhibitor): 27.6 min
- increase in half-life [5]: > 14 times

Reference: US20230301968A1 (ZEPHAPHARM LTD, priority 2020, published 2023)
